In the assay the target is T1, T. urticae AChE (TuAChE) (Tetranychus cinnabarinus, UniProt M9T420).
T1 construct: gene ace1; methods also mention mite extracts
T1 sequence (M9T420 1-687): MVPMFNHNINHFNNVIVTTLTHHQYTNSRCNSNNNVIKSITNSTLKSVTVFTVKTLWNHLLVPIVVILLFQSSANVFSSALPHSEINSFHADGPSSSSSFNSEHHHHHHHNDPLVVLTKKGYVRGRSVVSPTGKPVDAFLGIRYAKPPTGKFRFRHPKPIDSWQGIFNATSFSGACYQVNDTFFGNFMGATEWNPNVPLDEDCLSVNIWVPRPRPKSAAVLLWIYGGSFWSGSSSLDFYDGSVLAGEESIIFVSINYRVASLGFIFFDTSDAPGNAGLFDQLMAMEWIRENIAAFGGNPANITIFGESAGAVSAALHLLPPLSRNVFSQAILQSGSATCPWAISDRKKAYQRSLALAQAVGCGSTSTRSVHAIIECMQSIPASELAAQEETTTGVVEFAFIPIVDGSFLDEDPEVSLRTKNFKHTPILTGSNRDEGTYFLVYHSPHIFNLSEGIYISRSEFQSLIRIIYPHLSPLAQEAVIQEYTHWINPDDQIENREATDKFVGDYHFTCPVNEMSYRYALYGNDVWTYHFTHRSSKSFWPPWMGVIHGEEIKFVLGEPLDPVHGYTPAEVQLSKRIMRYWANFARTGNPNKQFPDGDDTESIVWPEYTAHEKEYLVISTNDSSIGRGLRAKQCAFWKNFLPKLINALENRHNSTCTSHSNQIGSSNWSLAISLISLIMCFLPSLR
As to the kind of experiment: modified Ellman assay, […] nm. The format is biochemical. In general terms: In Ellman's method for cholinesterases, released thiocholine reacts with DTNB.

Like-named read-outs stand apart in the source and are kept apart here.

`O=C(c1ccc2occc2c1)N1CCC(OCc2ccccc2)CC1` [compound 8, 1-(1-benzofuran-5-ylcarbonyl)-4-(benzyloxy) piperidine]: the IC50 (read-out: IC50(mM) / TuAChE) was determined as 1.51 mM.

Molecule `CNC(=O)Oc1ccc2c(c1)[C@]1(C)CCN(C)[C@@H]1N2C` [eserine] showed an IC50 of 3.81 mM.

Values taken from article PMC10424716, “Discovery selective acetylcholinesterase inhibitors to control Tetranychus urticae (Acari: Tetranychidae)” (Journal of Insect Science, 2023).
